The results in this text go back to ChEMBL document CHEMBL5291721, “A preclinical secondary pharmacology resource illuminates target-adverse drug reaction associations of marketed drugs” (Nat Commun, 2023).

Some results are limits rather than exact numbers.

One test deals with T1, Endothelin-1 receptor (Homo sapiens, UniProt P25101).
T1 sequence (P25101 whole entry): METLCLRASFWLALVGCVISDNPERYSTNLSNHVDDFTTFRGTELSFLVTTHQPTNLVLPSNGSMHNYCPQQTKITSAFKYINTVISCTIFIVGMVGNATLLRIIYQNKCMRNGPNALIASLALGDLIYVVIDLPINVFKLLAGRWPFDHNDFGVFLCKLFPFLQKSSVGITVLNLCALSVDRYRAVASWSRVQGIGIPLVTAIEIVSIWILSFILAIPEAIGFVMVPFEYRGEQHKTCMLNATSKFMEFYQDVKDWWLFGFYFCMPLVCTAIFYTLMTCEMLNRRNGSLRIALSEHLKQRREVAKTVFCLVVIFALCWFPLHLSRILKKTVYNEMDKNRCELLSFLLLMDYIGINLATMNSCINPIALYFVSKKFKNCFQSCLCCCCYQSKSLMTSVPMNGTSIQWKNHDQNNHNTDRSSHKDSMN

Test [1] has as its target Glutamate receptor ionotropic, NMDA 1 (Rattus norvegicus, UniProt P35439).
Test [2] deals with 5-hydroxytryptamine receptor 2B (Homo sapiens, UniProt P41595). The test is classed as functional, cell-based.
Test [3] addresses T2, Alpha-2A adrenergic receptor (Homo sapiens, UniProt P08913).
T2 sequence (P08913 whole entry): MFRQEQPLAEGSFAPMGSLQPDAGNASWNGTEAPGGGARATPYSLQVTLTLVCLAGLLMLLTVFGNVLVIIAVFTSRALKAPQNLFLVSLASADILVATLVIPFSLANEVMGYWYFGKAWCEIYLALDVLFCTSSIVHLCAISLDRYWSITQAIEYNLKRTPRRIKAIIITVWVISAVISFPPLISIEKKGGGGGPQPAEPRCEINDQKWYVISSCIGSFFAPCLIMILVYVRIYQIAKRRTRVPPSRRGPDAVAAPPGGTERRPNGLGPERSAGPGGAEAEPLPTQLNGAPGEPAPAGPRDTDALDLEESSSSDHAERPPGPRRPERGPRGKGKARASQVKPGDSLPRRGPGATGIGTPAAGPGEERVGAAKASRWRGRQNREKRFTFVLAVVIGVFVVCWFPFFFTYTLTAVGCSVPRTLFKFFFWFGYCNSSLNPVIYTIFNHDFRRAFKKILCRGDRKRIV

Test [4] concerns the target T3, Muscarinic acetylcholine receptor M2 (Homo sapiens, UniProt P08172).
T3 sequence (P08172 whole entry): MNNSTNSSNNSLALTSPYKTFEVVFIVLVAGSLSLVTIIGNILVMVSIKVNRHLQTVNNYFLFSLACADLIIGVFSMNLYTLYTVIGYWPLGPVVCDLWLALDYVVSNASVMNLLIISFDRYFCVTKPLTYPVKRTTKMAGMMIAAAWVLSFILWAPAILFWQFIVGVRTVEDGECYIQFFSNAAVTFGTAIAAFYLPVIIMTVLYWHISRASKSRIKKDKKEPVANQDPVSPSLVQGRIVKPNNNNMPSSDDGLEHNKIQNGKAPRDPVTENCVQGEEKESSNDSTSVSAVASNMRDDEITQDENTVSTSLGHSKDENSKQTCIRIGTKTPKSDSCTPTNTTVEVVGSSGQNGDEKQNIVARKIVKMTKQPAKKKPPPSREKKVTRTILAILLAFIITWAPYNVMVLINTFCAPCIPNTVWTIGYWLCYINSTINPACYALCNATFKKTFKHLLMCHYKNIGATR

For the next test, the target named is T4, Thromboxane A2 receptor (Homo sapiens, UniProt P21731).
T4 sequence (P21731 whole entry): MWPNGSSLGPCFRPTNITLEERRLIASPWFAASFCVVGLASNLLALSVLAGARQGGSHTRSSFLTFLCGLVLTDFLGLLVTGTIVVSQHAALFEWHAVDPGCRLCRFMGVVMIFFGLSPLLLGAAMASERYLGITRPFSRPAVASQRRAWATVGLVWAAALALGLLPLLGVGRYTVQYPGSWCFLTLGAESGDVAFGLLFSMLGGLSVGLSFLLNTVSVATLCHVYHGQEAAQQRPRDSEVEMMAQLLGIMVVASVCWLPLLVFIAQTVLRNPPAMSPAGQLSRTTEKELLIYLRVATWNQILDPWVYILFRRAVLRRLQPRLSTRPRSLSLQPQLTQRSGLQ
The test is classed as functional, cell-based.

Another test has as its target D(1A) dopamine receptor (Homo sapiens, UniProt P21728).
Note: assay procedure not described here.

Chain of 5-hydroxytryptamine receptor 2B (P41595 whole entry): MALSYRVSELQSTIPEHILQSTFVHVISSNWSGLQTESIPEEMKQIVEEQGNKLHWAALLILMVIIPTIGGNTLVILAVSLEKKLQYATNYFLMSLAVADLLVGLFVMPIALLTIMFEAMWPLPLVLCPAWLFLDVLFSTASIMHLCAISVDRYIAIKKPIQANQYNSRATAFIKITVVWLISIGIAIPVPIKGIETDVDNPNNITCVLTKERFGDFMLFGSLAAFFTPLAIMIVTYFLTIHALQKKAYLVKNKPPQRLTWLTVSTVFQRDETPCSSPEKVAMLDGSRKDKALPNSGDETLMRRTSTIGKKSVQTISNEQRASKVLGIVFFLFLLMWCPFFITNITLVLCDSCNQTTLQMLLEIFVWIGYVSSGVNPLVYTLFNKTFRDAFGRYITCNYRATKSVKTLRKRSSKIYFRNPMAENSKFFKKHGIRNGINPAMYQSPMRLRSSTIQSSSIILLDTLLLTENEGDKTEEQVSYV
Chain of D(1A) dopamine receptor (P21728 whole entry): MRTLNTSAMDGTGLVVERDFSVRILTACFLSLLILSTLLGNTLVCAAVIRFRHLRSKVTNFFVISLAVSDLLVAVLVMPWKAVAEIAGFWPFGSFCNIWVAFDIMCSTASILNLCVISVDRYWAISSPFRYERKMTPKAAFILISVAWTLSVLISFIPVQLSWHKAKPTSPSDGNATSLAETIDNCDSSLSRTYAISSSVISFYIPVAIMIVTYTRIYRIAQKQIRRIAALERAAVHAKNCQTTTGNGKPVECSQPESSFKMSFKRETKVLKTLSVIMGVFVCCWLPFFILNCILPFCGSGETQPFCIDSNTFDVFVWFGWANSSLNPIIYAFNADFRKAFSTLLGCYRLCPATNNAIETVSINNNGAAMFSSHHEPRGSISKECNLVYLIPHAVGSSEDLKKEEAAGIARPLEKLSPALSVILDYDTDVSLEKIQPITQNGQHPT

Consider `CO/N=C(\C(=O)N[C@@H]1C(=O)N2C(C(=O)[O-])=C(C[N+]3(C)CCCC3)CS[C@H]12)c1csc(N)n1`, for which the AC50 was over 300 µM on Endothelin-1 receptor and over 30 µM in test [1]. On the same counts, the results for `COC(=O)N[C@H](C(=O)N1CCC[C@H]1c1nc(-c2ccc(-c3ccc(-c4c[nH]c([C@@H]5CCCN5C(=O)[C@@H](NC(=O)OC)C(C)C)n4)cc3)cc2)c[nH]1)C(C)C` are over 30 µM and over 30 µM. On the same counts, the results for `CCOC(=O)[C@H](CCc1ccccc1)N[C@@H](C)C(=O)N1CCC[C@H]1C(=O)O` are over 30 µM and over 10 µM.

At Endothelin-1 receptor, `CC(=O)c1ccc2c(c1)N(CCCN1CCN(CCO)CC1)c1ccccc1S2` [ACETOPHENAZINE] registered an AC50 of over 30 µM. For the compound `CC(N)Cc1ccccc1` (centres undefined) [AMPHETAMINE], the AC50 on Endothelin-1 receptor is over 30 µM; in test [1], over 10 µM. For the compound `COC(=O)N[C@H](C(=O)N[C@@H](Cc1ccccc1)[C@@H](O)CN(Cc1ccc(-c2ccccn2)cc1)NC(=O)[C@@H](NC(=O)OC)C(C)(C)C)C(C)(C)C` [ATAZANAVIR], in test [1], the AC50 was over 10 µM. Consider `CN1CCCC(n2nc(Cc3ccc(Cl)cc3)c3ccccc3c2=O)CC1` (centres undefined) [AZELASTINE], for which the concentration at half-maximal activity (AC50) on Endothelin-1 receptor is over 30 µM. Turning to `CC(C)NCC(O)COc1ccc(COCCOC(C)C)cc1` (centres undefined) [BISOPROLOL], the AC50 on Endothelin-1 receptor is over 30 µM; in test [1], over 10 µM. With `N[C@@H](C(=O)N[C@@H]1C(=O)N2C(C(=O)O)=C(Cl)CS[C@H]12)c1ccccc1` [CEFACLOR ANHYDROUS], the AC50 (at Endothelin-1 receptor; in test [1]) was over 30 µM throughout. As to `CCC[C@@H]1C[C@@H](C(=O)N[C@@H]([C@H]2O[C@H](SC)[C@H](O)[C@@H](O)[C@H]2O)[C@H](C)Cl)N(C)C1` [CLINDAMYCIN], the values for the AC50 (at Endothelin-1 receptor; in test [1]) were over 30 µM and over 10 µM, respectively. Regarding `CN(C)CCCN1c2ccccc2CCc2ccc(Cl)cc21` [CLOMIPRAMINE], the AC50 in test [2] was over 30 µM; in test [3] it was 3.63 µM; in test [4], 0.451 µM.

Take `CC(=O)OCC(=O)[C@@]1(O)CC[C@H]2[C@@H]3CCC4=CC(=O)CC[C@]4(C)[C@H]3C(=O)C[C@@]21C` [CORTISONE ACETATE]: the AC50 in test [2] and in test [1] was over 30 µM each time.

Consider `C[N+](C)(C)CCCCCCCCCC[N+](C)(C)C` [DECAMETHONIUM], for which the AC50 (on Thromboxane A2 receptor; in test [2]; in test [3]; in test [4]; on D(1A) dopamine receptor) was over 30 µM each time. `O=C(O)c1cc(-c2ccc(F)cc2F)ccc1O` [DIFLUNISAL] came in with an AC50 in test [1] of over 10 µM. As for `COC(=O)[C@@H]1CC2=CC(=O)CC[C@]2(C)[C@@]23O[C@@H]2C[C@@]2(C)[C@@H](CC[C@@]24CCC(=O)O4)[C@H]13` [EPLERENONE], the AC50 at Endothelin-1 receptor was over 30 µM; in test [1], over 10 µM. On the same counts, the results for `NC(N)=Nc1nc(CSCCC(N)=NS(N)(=O)=O)cs1` [FAMOTIDINE] are over 30 µM and over 10 µM.

In turn, `C[C@@H]1O[C@@H]1P(=O)(O)O` [FOSFOMYCIN] returned an AC50 in test [1] of over 10 µM. With `COc1ccc2c(c1)C(=O)N(CCc1ccc(S(=O)(=O)NC(=O)NC3CCCCC3)cc1)C(=O)C2(C)C` [GLIQUIDONE], the AC50 (at Endothelin-1 receptor; in test [1]) was over 30 µM each time. With `NS(=O)(=O)c1cc2c(cc1Cl)NCNS2(=O)=O` [HYDROCHLOROTHIAZIDE], the AC50 on Endothelin-1 receptor is over 30 µM; in test [1], over 10 µM. Turning to `CC(C)Cc1ccc(CC(=O)O)cc1` [IBUFENAC], at Endothelin-1 receptor, the AC50 is over 30 µM. Still for that read-out and setting: as for `CC(C)NNC(=O)c1ccncc1` [IPRONIAZID], the figure is over 30 µM. `NC[C@H]1O[C@H](O[C@H]2[C@H](O)[C@@H](O[C@H]3O[C@H](CO)[C@@H](O)[C@H](N)[C@H]3O)[C@H](N)C[C@@H]2N)[C@H](O)[C@@H](O)[C@@H]1O` [KANAMYCIN] displayed an AC50 in test [1] of over 10 µM. In the case of `C#C[C@]1(O)CC[C@H]2[C@@H]3CCC4=CC(=O)CC[C@@H]4[C@H]3CC[C@@]21CC` [LEVONORGESTREL], the AC50 (on Thromboxane A2 receptor; in test [2]; in test [3]; in test [4]; on D(1A) dopamine receptor) was over 30 µM throughout.

`CN1C(=O)CC(C)(c2ccccc2)C1=O` (centres undefined) [METHSUXIMIDE] registered an AC50 in test [1] of over 10 µM.

In turn, `C[C@H]1C[C@@H]2[C@H]([C@@H](O)C[C@@]3(C)[C@H]2CC[C@]3(O)C(=O)CO)[C@@]2(C)C=CC(=O)C=C12` [METHYLPREDNISOLONE] returned an AC50 in test [1] of over 10 µM. As for `CCN(CC)CCNC(=O)c1cc(Cl)c(N)cc1OC` [METOCLOPRAMIDE], the concentration at half-maximal activity (AC50) on Endothelin-1 receptor was over 30 µM; in test [1], over 10 µM. With `CC(C)(C(=O)c1cccnc1)c1cccnc1` [METYRAPONE], in test [1], the AC50 was over 10 µM. At Endothelin-1 receptor, `Cc1cccc(C)c1OCC(C)N` (centres undefined) [MEXILETINE] displayed a concentration at half-maximal activity (AC50) of over 30 µM. Regarding `NC(=O)c1ncn([C@@H]2O[C@H](CO)[C@@H](O)[C@H]2O)c1O` [MIZORIBINE], the AC50 (on Endothelin-1 receptor; in test [1]) was over 30 µM in each case. Regarding `CCc1nn(CCCN2CCN(c3cccc(Cl)c3)CC2)c(=O)n1CCOc1ccccc1` [NEFAZODONE], the AC50 at Endothelin-1 receptor was over 30 µM; in test [1], over 10 µM. `COC(=O)C1=C(C)NC(C)=C(C(=O)OCC(C)C)C1c1ccccc1[N+](=O)[O-]` (centres undefined) [NISOLDIPINE]: the AC50 in test [1] is over 10 µM. Compound `NC1=NC(=O)C(c2ccccc2)O1` (centres undefined) [PEMOLINE] gave an AC50 in test [1] of over 10 µM. Turning to `CC[C@H](C)C(=O)O[C@H]1C[C@H](O)C=C2C=C[C@H](C)[C@H](CC[C@@H](O)C[C@@H](O)CC(=O)O)[C@H]21` [PRAVASTATIN], the half-maximal activity concentration (AC50) was over 30 µM at Endothelin-1 receptor and over 10 µM in test [1].

With `CNC(=O)c1cc(Oc2ccc(NC(=O)Nc3ccc(Cl)c(C(F)(F)F)c3)cc2)ccn1` [SORAFENIB], the AC50 (on Endothelin-1 receptor; in test [1]) was over 30 µM in each case. In test [1], `CC(C(=O)O)c1ccc(C(=O)c2cccs2)cc1` (centres undefined) [SUPROFEN] came in with an AC50 of over 10 µM. On the same count and under the same terms, as for `Cc1ccc(C(=O)c2cc(O)c(O)c([N+](=O)[O-])c2)cc1` [TOLCAPONE], the figure is over 10 µM; as for `NC[C@H]1CC[C@H](C(=O)O)CC1` [TRANEXAMIC ACID], over 10 µM. `CCCS(=O)(=O)Nc1ccc(F)c(C(=O)c2c[nH]c3ncc(-c4ccc(Cl)cc4)cc23)c1F` [VEMURAFENIB]: the AC50 (on Endothelin-1 receptor; in test [1]) was over 30 µM throughout. As for `OCc1cc([C@@H](O)CNCCCCCCOCCOCc2c(Cl)cccc2Cl)ccc1O` [VILANTEROL], the AC50 on Endothelin-1 receptor is over 30 µM. On to `O=C(CCCCCCC(=O)Nc1ccccc1)NO` [VORINOSTAT], for which the AC50 (at Endothelin-1 receptor; in test [1]) was over 30 µM in each case.
